Experimental data reported in US6099857A, “Cell membrane fusion composition and method” (Washington University, priority 1998, dated 2000).

Tests used:
[1] = biological target: T1, GAPDH isoform (membrane fusion protein) (Oryctolagus cuniculus, UniProt P46406); experiment: Protein-catalyzed membrane fusion of physiologically-modeled SUVs (R18, stopped flow); type: biochemical, rabbit; conditions: for inhibition of membrane fusion activity: GAPDH isoform-catalyzed fusion of physiologically-modeled SUVs
T1 construct: from tissue; host or cells: rabbit brain (cytosol; DE-52 void volume, HiLoad SP Sepharose, GTP-agarose and Mono Q fractions)
Method: Rabbit brain cytosol was prepared and loaded onto a previously equilibrated DE-52 column. The column was developed with a linear NaCl gradient (0-400 Mm NaCl) and column eluents were assayed for their ability to catalyze membrane fusion utilizing physiologically-modeled small unilamellar vesicles (SUVs) as described in "Materials and Methods". Vesicles were comprised of 16:0-18:1 phosphatidylcholine (27%), 16:0-18:1 phosphatidylserine (6%), cholesterol (40%) and 27% of each of the following ethanolamine glycerophospholipids: 18:0-20:4 plasmenylethanolamine; 16:0-18:1 plasmenylethanolamine; 18:0-20:4 phosphatidylethanolamine; or 16:0-18:1 phosphatidylethanolamine . (----), uv absorbance at 280 nm; (----), NaCl gradient.
Physiologically-modeled SUVs were prepared (concentration=200 μM). The other chamber contained the Pi3 /NAD^+ eluent from GTP-agarose chromatography (0.004 mg/ml) which was previously incubated with (D)-glyceraldehyde 3-phosphate at the indicated concentrations for 30 seconds at 37° C. The rates of membrane fusion from four separate determinations of two preparations were averaged and expressed as a percentage of maximum fusion.
Physiologically-modeled small unilamellar vesicles consisting of 16:0-18:1 phosphatidylcholine (27%), ethanolamine glycerophospholipid (27%), 16:0-18:1 phosphatidylserine (6%) and cholesterol (40%) were prepared (final lipid concentration of 200 μM) and placed in one chamber of a stopped-flow apparatus. Aliquots of the HiLoad SP Sepharose column eluent (protein concentration=0.002 mg/ml) were placed in the other chamber, samples were rapidly mixed in a stopped flow apparatus and membrane fusion was quantified. Ethanolamine glycerophospholipids included 100% plasmenyl ethanolamine (A) 75% plasmenyl ethanolamine and 25% PE (B); 50% plasmenyl ethanolamine and 50% PE (C); and 25% plasmenyl ethanolamine and 75% PE (D;
Vesicles were composed of 16:0-18:1 PC/18:0-20:4 plasmenyl ethanolamine/cholesterol (27/27/40 mole percent) and varying mole percentages of phosphatidylserine (6% phosphatidylserine (A), 12% phosphatidylserine (B), 3% phosphatidylserine (C) or 0% phosphatidylserine (D)).
Physiologically-modeled SUVs containing phosphatidylcholine/18:0-20:4 plasmenylethanolamine/phosphatidylserine (45/45/10 mole ratio) and selected mole percentages of cholesterol (i.e., 40% cholesterol (A), 20% cholesterol (B), or 0% cholesterol (C)) were placed in one chamber of a stopped-flow apparatus. The other chamber contained aliquots of the active fraction from GTP-agarose chromatography (i.e., 20 mM tripolyphosphate/10 mM NAD^+ (Pi3 /NAD^+)), at a protein concentration of 0.004 mg/ml. Samples were rapidly mixed and membrane fusion was quantified. Results represent the average of six recordings from two independent preparations expressed as a percentage of maximal fusion.
The isolation of a GAPDH isoform that has been discovered to catalyze vesicle fusion, in accordance with the invention, is described in Example 5. Briefly, a […] homogenate was centrifuged at high speed to produce a cytosol. Dialyzed cytosol was fractionated on a DE-52 column, and the fractions were assayed in a vesicle fusion assay. The lipid vesicles that were used in the assay were composed of 27 mole percent of […], 6 mole percent PS, 40 mole percent cholesterol, and 27 mole percent […]. These vesicles show little measurable self-fusion activity, as evidenced by change in fluorescence in an R18 assay (half of the vesicles labeled with R18). […] The reasons underlying the cryptic nature of this activity in crude cytosol have been elaborated, showing that the cytosol contains a potent endogenous protein inhibitor of fusion activity. […]

GAPDH = biological target: T2, GAPDH (Oryctolagus cuniculus, UniProt P46406); experiment: Glyceraldehyde 3-phosphate dehydrogenase activity (spectrophotometric, NADH); type: biochemical, rabbit
T2 construct: Column eluents were assayed for GAPDH activity and membrane fusion activity; from tissue; host or cells: rabbit brain (column eluents of the purification)
Method: The activity of GAPDH was measured spectrophotometrically utilizing modifications of the methods of Cori, .backslash.at al. (1948) and Steck, et al. (1973). Briefly, sample was added to a 1 cm path-length semi-micro cuvette containing 50 mM triethanolamine (pH 7-6), sodium arsenate (50 mM) (pH 8.8), 2.4 mM glutathione (reduced), 0.5 mM NAD, and water in a final volume of 990 .backslash.pl. After establishing a baseline (1 min), the reaction was initiated with 10 μl of 10 mM D-glyceraldehyde 3-phosphate (prepared according to Sigma product bulletin G-8007) and absorbance at 340 nm was measured for 5 minutes. Units of GAPDH activity represent the mass (μmol) of D-glyceraldehyde 3-phosphate converted per minute. The mass of NADH generated was calculated utilizing ε=[…].

[2] = NBD-PE/Rh-PE lipid-mixing fusion assay with PS SUVs; conditions: equal molar mixture with PC; NBD-PE dequenching
Method: In the NBD-PE/Rh-PE assay detailed in Example 2B, NBD-PE (N-(7-nitrobenz-2-oxa-1,3-diazol-4-yl)-1,2-dihexadecanoyl-sn-glycerol-3-phosphoethanolamine), and Rh-PE are incorporated into PS SUV's and the vesicles are mixed with test vesicles. Vesicle fusion is followed by the change in fluorescence emission at 530 nm, after […] at 464 nm.
This assay was performed by preparing phosphatidylserine SUVs containing 1.8% Rh-PE and 1.2% NBD-PE and adding an equimolar amount of unlabelled PC/PE vesicles pursuant to (Struck, et al. (1981); and Hoekstra, 1982). Fusion was monitored by NBD-PE fluorescence at 530 nm after excitation at 464 nm. The 100% fusion level was assessed by preparing lipid vesicles composed of 46.5% PS, 25% PC, 25% PE, 0.9% Rh-PE, and 0.6% NBD-PE and subsequently quantifying fluorescence intensity.
Since Rh-PE partially quenches NBD-PE fluorescence by resonance energy transfer at the initial concentrations used in these experiments, membrane fusion results in an increase in NBD-PE fluorescence as available membrane surface area increases.
To verify the results obtained with the R18 fusion assay, a second lipid-mixing assay utilizing NBD-PE and Rh-PE was used. […]

[3] = R18 assay of calcium-induced fusion of SUVs of ternary PS/PC/ethanolamine glycerophospholipid mixtures
[4] = Breakdown of lipids in vesicles during fusion studies (TLC, straight-phase HPLC, 3H label); type: physicochemical; conditions: within the time frame of the assay
From the text: To verify the differences in observed fusion rates were not due to selective breakdown of one subclass of ethanolamine glycerophospholipid, aliquots of lipid vesicles employed in the fusion studies were extracted by the method of Bligh and Dyer and analyzed by TLC and straight-phase HPLC. No lysophospholipids or other contaminants were detected within the time frame of the assay. For higher sensitivity detection, 16:0-18:1 plasmenyl ethanolamine was synthesized with a ^3 H label on the sn-2 oleoyl group. This label was added to a liposome preparation containing unlabeled PC and PE.

T1 sequence (P46406 2-333 limits assumed): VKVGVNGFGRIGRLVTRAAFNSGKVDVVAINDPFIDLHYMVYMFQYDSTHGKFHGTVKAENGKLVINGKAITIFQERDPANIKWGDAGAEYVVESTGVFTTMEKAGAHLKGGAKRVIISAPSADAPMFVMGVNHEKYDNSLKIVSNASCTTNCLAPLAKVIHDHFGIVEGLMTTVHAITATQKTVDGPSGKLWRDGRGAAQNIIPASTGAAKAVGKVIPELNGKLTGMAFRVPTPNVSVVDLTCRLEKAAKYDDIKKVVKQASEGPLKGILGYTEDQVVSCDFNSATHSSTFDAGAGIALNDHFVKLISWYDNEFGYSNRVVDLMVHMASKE
T2 sequence (P46406 2-333 limits assumed): as above

In the case of `CC(C)[C@H]1CC[C@@]2(CO2)[C@H]2C(=O)OCC(C(=O)O)=C[C@H]12` [Koningic acid], the “inhibition of membrane fusion activity” value [1] is reported as “failed to inhibit” and the “inhibition of GAPDH enzyme activity” value (GAPDH) is reported as “maximally inhibited”.

In the case of `O=C(O)c1cc(SSc2ccc([N+](=O)[O-])c(C(=O)O)c2)ccc1[N+](=O)[O-]` [DTNB], the “inactivation of membrane fusion-catalyzing activity” value ([1]; 1 mM for 30 minutes at 37° C., void volume activity) is reported as “inactivated”.

In the case of `O=C[C@H](O)COP(=O)(O)O` [D-glyceraldehyde 3-phosphate], the “inhibition of membrane fusion activity” value [1] is reported as “inhibited”.

With “GAPDH isoform: 38 kDa isoform of glyceraldehyde-3-phosphate dehydrogenase purified from rabbit brain cytosol that catalyzes vesicle fusion” the “time for catalyzed fusion of one pair of vesicles (on average)” value ([1]; calculated, protein 4 μg/ml, assumes ≈1000 lipid molecules per vesicle and tetramer) was 1 ms and the “selectivity of membrane fusion activity for vesicles containing plasmenylethanolamine compared with phosphatidylethanolamine” value ([1]; each stage of the purification procedure) was “highly selective”.

For `CCN1C(=O)C=CC1=O` [N-ethylmaleimide], the “inhibition of membrane fusion-catalyzing activity” value ([1]; 1 mM for 60 minutes at 37° C., void volume activity) was “not inhibited”.

With `CCCCCCCC/C=C\CCCCCCCC(=O)O[C@H](CO/C=C\CCCCCCCCCCCCCC)COP(=O)(O)OCCN` [16:0-18:1 plasmenyl ethanolamine] the “rate of fusion to PS SUVs relative to PC/16:0-18:1 phosphatidylethanolamine vesicles” value [2] was “three times more rapidly”, the “initial rate of membrane fusion relative to vesicles with 16:0-18:1 phosphatidylethanolamine” value ([3]; 45% PC/45% PE/10% PS vesicles) was “significantly greater” and the “fusogenicity relative to vesicles containing 16:0-18:1 phosphatidylethanolamine” value ([3]; POPS/POPC/ethanolamine glycerophospholipid (1:1:1) SUVs) was “six times more fusogenic”. For the same molecule, the “breakdown of lipid during the fusion procedures” value [4] was “No significant generation of radiolabeled fatty acid or lysophospholipid”.
